Our source for the inhibition and IC50 values is US8546579B2, “Bicycloheteroaryl compounds as P2X7 modulators and uses thereof” (Evotec (US) Inc., priority 2006, dated 2013).

In the test the target is T1, P2X7 receptor (Homo sapiens, UniProt Q99572).
T1 construct: host or cells: THP-1 cells differentiated with LPS and IFN-γ
T1 sequence (Q99572 1-595): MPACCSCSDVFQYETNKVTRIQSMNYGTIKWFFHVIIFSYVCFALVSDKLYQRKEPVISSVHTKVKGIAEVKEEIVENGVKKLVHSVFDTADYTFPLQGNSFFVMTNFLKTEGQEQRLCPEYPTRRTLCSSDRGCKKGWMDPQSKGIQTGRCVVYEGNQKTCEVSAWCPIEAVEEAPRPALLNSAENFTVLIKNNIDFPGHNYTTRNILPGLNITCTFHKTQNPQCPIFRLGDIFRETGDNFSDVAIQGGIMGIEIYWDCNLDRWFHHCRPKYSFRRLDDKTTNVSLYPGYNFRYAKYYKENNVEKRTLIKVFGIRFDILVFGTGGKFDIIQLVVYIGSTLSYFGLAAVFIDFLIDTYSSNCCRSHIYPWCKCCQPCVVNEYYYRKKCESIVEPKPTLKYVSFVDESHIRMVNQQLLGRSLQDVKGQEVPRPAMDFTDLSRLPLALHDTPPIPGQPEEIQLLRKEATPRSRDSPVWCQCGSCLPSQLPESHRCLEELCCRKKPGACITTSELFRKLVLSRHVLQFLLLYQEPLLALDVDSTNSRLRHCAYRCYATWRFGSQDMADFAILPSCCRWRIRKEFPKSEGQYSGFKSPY
The test can be described thus: IL-1β release assay in differentiated THP-1 cells stimulated with BzATP (Example 9). The following applies: for inhibition: THP-1, read-out: IL-1β % Inhib.; for inhibition at 0.3 µM: 0.3 μM compound, read-out: IL-1β % Inhib. @ 0.3 μM; for inhibition at 0.3 µM / inhibition at 0.1 µM: differentiated THP-1 cells, BzATP 250 uM; for IC50: THP-1 cells, BzATP-stimulated IL-1β release, four parameter logistic fit; for inhibition at 0.1 µM: 0.1 μM compound. Type of test: cell-based. Also noted: inhibition: dose or concentration left out as unconfirmed. The procedure:
THP-1 cells (ATCC Cat # 285-IF-100) are plated in 96 well plates at a concentration of 200,000 cells per well and allowed to differentiate in RPMI-1640 media (ATCC Cat # 30-2001) containing 10% FBS, 100 IU/mL penicillin, 100 ug/mL streptomycin, 100 ng/mL LPS and 100 ng/mL IFN-γ for 16 hours. Following differentiation, the cells are treated for an additional 2 hours in RPMI-1640 media containing 100 IU/mL penicillin, 100 ug/mL streptomycin and fresh LPS at 100 ng/mL. The cells are then pretreated for 30 minutes with the compound of interest at the appropriate concentration in RPMI media containing 100 IU/mL penicillin, 100 ug/mL streptomycin. Following the pretreatment 2′,3′-O-(4-benzoylbenzoyl)-adenosine 5′-triphosphate (Sigma Aldrich Cat # B6396) is added to a final concentration of 250 uM and the cells are incubated for an additional 45 minutes. 30 uL of cell supernatant is then collected and IL-1β levels determined via ELISA (R&D systems Cat. # HSLB50) according to manufacturer's recommendations using the Tecan Safire plate reader. Background adjusted IL-1β levels of drug treated and non-treated cells are used to calculate the percent inhibition.
The compounds set forth in Table 1 were tested for activity in a cellular model as described herein. Specifically, cells were pretreated with differing amounts of the compound under test and released IL-1β determined as in Example 9, above. Measurements were made and IC50 values, presented in Table 2, below, were determined by fitting the data to a four parameter logistic equation using GraphPad Prism software (GraphPad Software, Inc). The equation may be expressed by the following formula: Y=Bottom+(Top−Bottom)/(1+10^((Log EC50−X)*HillSlope)) Where X is the logarithm of concentration, Y is the response and Y starts at Bottom and goes to Top with a sigmoid shape.

[1] abbreviates: "*" class symbols, read-out: IL-1β % Inhib. ("*" symbols: at 0.1 μM).
[2] abbreviates: '*' class symbols, read-out: IL-1β % Inhib. (asterisk classes, 0.1 μM).

Like-named read-outs stand apart in the source and are kept apart here.

As for `O=C(Cc1csc2ccccc12)Nc1cccc2c(=O)n(Cc3cccnc3)ccc12` [Compound 1453], the inhibition fell in the range of 0 to 25%.
On to `Cn1ccc2c(NC(=O)c3cc4cc(Cl)ccc4o3)cccc2c1=O` [Compound 1308], for which the inhibition at 0.3 µM (symbols + to ++++) lay in the range of 0 to 25%.
As usually defined, the IC50 is the point on the concentration scale where inhibition reaches its midpoint. With `CC(=O)OCCn1ccc2c(NC(=O)Cc3cc(C(F)(F)F)ccc3C(F)(F)F)cccc2c1=O` [Compound 1382], it took 602 nM to reach half-maximal inhibition (IC50). Besides, the inhibition at 0.3 µM (symbols + to ++++) fell in the range of 26 to 50%.
As for `COc1ccc(CC(=O)Nc2cccc3c(=O)n(CCN4CCOCC4)ccc23)c(OC)c1` [Compound 1230], the inhibition at 0.3 µM (symbols + to ++++) was in the range of 0 to 25%.
Turning to `CN(C)CCn1ccc2c(NC(=O)c3cc4cc(Cl)ccc4o3)cccc2c1=O` [Compound 1182], the inhibition at 0.3 µM ('+' class symbols) was in the range of 0 to 25%.
Consider `CN(C)CCn1ccc2c(NC(=O)Cc3ccccc3)cccc2c1=O` [Compound 1019], for which the IC50 was > 1000 nM. Further, where the note is “'+' class symbols”, the inhibition at 0.3 µM lay in the range of 0 to 25%.
Take `CC(C)(C)c1ccc(C(=O)Nc2cccc3c(=O)n(CC4CCOCC4)ccc23)cc1` [Compound 1092]: the inhibition at 0.3 µM ('+' class symbols) was 0 to 25%.
Consider `COc1ccc(CC(=O)Nc2cccc3c(=O)n(CCN4CCOCC4)ccc23)cc1C` [Compound 1234], for which the inhibition at 0.3 µM (symbols + to ++++) is 0 to 25%.
Consider `COc1cccc(CCC(=O)Nc2cccc3c(=O)n(C)ccc23)c1` [Compound 1058], for which the inhibition at 0.3 µM ('+' class symbols) lay in the range of 0 to 25%.
For `Cc1cccc(CC(=O)Nc2cccc3c(=O)n(CCN(C)C)ccc23)c1` [Compound 1159], the inhibition at 0.3 µM ('+' class symbols) lay within 0 to 25%.
As to `CC(C)(C)Cn1ccc2c(NC(=O)CCc3ccc(Cl)cc3)cccc2c1=O` [Compound 1417], the inhibition was in the range of 26 to 50%.
For `Cc1cc(Cl)ccc1C(=O)Nc1cccc2c(=O)n(CC3CCOCC3)ccc12` [Compound 1114], the inhibition at 0.3 µM ('+' class symbols) lay within 0 to 25%.
As for `COCCn1ccc2c(NC(=O)Cc3ccccc3F)cccc2c1=O` [Compound 1435], the inhibition fell in the range of 0 to 25%.
On to `CC(c1ccccn1)n1ccc2c(NC(=O)Cc3ccc(Cl)c(F)c3)cccc2c1=O` (stereo not drawn) [Compound 1637], for which the inhibition at 0.1 µM under setting [1] was in the range of 26 to 50%.
In the case of `Cc1ccccc1CC(=O)Nc1cccc2c(=O)n(Cc3ccc(OC(F)(F)F)cc3)ccc12` [Compound 1579], the inhibition was 0 to 25%.
With `Cc1cc(C(=O)Nc2cccc3c(=O)n(CC4CCOCC4)ccc23)ccc1Cl` [Compound 1033], for the setting “'+' class symbols”, the inhibition at 0.3 µM fell in the range of 0 to 25%.
Turning to `Cc1ccc(C)c(CC(=O)Nc2cccc3c(=O)n(CC4CCOCC4)ccc23)c1` [Compound 1028], the inhibition at 0.3 µM ('+' class symbols) lay in the range of 0 to 25%.
For the compound `Cc1ccc(Cl)cc1C(=O)Nc1cccc2c(=O)n(CCN3CCOCC3)ccc12` [Compound 1236], the inhibition at 0.3 µM (symbols + to ++++) is 0 to 25%.
In the case of `Cc1ccc(C(=O)Nc2cccc3c(=O)n(CCCN4CCCC4=O)ccc23)c(C)c1` [Compound 1509], the inhibition lay in the range of 0 to 25%.
In the case of `COc1cc(OC)cc(C(=O)Nc2cccc3c(=O)n(CCN4CCOCC4)ccc23)c1` [Compound 1196], under setting [2], the inhibition at 0.1 µM is 0 to 25%.
For the compound `Cc1ccc(C)c(C(=O)Nc2cccc3c(=O)n(Cc4ccc(OC(F)(F)F)cc4)ccc23)c1` [Compound 1565], the inhibition fell in the range of 0 to 25%.
Turning to `O=C(Nc1cccc2c(=O)n(Cc3cccnc3)ccc12)c1ccc(-c2ccccc2)o1` [Compound 1074], under “'+' class symbols”, the inhibition at 0.3 µM fell in the range of 0 to 25%.
Turning to `CN(C)CCn1ccc2c(NC(=O)c3ccccc3)cccc2c1=O` [Compound 1006, N-[2-(2-Dimethylamino-ethyl)-1-oxo-1,2-dihydro-isoquinolin-5-yl]-benzamide], half-maximal inhibition (IC50) was put at 99.2 nM. The inhibition at 0.3 µM ('+' class symbols) lay within 0 to 25%.
For `Cc1ccc(C(=O)Nc2cccc3c(=O)n(CCCN4CCCC4=O)ccc23)cc1Cl` [Compound 1530], the inhibition fell in the range of 26 to 50%.
`COc1ccccc1CC(=O)Nc1cccc2c(=O)n(CC(C)(C)C)ccc12` [Compound 1254]: the inhibition at 0.3 µM (symbols + to ++++) lay within 0 to 25%.
For the compound `COCCn1ccc2c(NC(=O)c3ccc(-c4ccccc4)o3)cccc2c1=O` [Compound 1063], under setting [2], the inhibition at 0.1 µM is 0 to 25%.
As to `O=C(Nc1cccc2c(=O)n(Cc3cccnc3)ccc12)c1cc(Cl)ccc1Cl` [Compound 1442], the inhibition lay within 0 to 25%.
Take `COc1ccc(C(=O)Nc2cccc3c(=O)n(CC4CCOCC4)ccc23)cc1C` [Compound 1133]: the inhibition at 0.3 µM ('+' class symbols) lay in the range of 0 to 25%.
For the compound `CN(C)CCn1ccc2c(NC(=O)CCc3cccc(Cl)c3)cccc2c1=O` [Compound 1186], the inhibition at 0.3 µM ('+' class symbols) lay in the range of 51 to 75%.
For the compound `Cc1ccc(CC(=O)Nc2cccc3c(=O)n(CCN4CCOCC4)ccc23)cc1` [Compound 1214], the inhibition at 0.3 µM (symbols + to ++++) is 0 to 25%.
`COc1ccc(C(=O)Nc2cccc3c(=O)n(CCCN4CCCC4=O)ccc23)cc1Cl` [Compound 1500]: the inhibition fell in the range of 0 to 25%.
For the compound `CCOc1ccc(C(=O)Nc2cccc3c(=O)n(Cc4cccnc4)ccc23)c(O)c1` [Compound 1072], the inhibition at 0.3 µM ('+' class symbols) lay within 0 to 25%.
As to `COc1ccc(CCC(=O)Nc2cccc3c(=O)n(Cc4cccnc4)ccc23)cc1` [Compound 1349], the inhibition at 0.1 µM (symbols * to ****, read-out: IL-1β % Inhib. (asterisk symbols: at 0.1 μM)) fell in the range of 0 to 25%.
For `O=C(CC1CC2CC[C@H]1C2)Nc1cccc2c(=O)n(CCN3CCOCC3)ccc12` (stereo partly drawn) [Compound 1222], the inhibition at 0.3 µM (symbols + to ++++) is 0 to 25%.
`COCCn1ccc2c(NC(=O)Cc3cc(OC)cc(OC)c3)cccc2c1=O` [Compound 1322]: under “symbols + to ++++”, the inhibition at 0.3 µM was in the range of 0 to 25%.
Same read-out and setting: in the case of `Cc1ccccc1CC(=O)Nc1cccc2c(=O)n(CC(C)(C)C)ccc12` [Compound 1256] it was 0 to 25%.
On to `O=C(Nc1cccc2c(=O)n(CCCN3CCCC3=O)ccc12)c1ccc(Cl)cc1Cl` [Compound 1505], for which the inhibition is 26 to 50%.
Consider `CCOc1ccc(CC(=O)Nc2cccc3c(=O)n(CCOC)ccc23)cc1` [Compound 1317], for which the inhibition at 0.3 µM (symbols + to ++++) lay in the range of 0 to 25%.
The compound `CC(=O)OCCn1ccc2c(NC(=O)CC3CCCCCC3)cccc2c1=O` [Compound 1375] had an IC50 of 86.7 nM. Besides, the inhibition at 0.3 µM (symbols + to ++++) is ≥ 76%.
Consider `Cc1ccc(C(=O)Nc2cccc3c(=O)n(CCN(C)C)ccc23)c(C)c1` [Compound 1141], for which, where the note is “'+' class symbols”, the inhibition at 0.3 µM fell in the range of 0 to 25%.
Take `COc1ccc(CC(=O)Nc2cccc3c(=O)n(CCCN4CCCC4=O)ccc23)cc1C` [Compound 1539]: the inhibition is 0 to 25%.
As for `O=C(Nc1cccc2c(=O)n(CC3CCOCC3)ccc12)c1cc(Cl)ccc1Cl` [Compound 1084], the inhibition at 0.3 µM ('+' class symbols) is 0 to 25%.
With `Cc1cccc(C(=O)Nc2cccc3c(=O)n(CCN(C)C)ccc23)c1C` [Compound 1140], the inhibition at 0.3 µM ('+' class symbols) was in the range of 0 to 25%.
Regarding `O=C(Nc1cccc2c(=O)n(CC3CCOCC3)ccc12)c1ccc2c(c1)OCCCO2` [Compound 1118], the inhibition at 0.3 µM ('+' class symbols) lay in the range of 0 to 25%.
As to `CCOc1ccccc1CC(=O)Nc1cccc2c(=O)n(Cc3ccc(OC(F)(F)F)cc3)ccc12` [Compound 1604], under setting [1], the inhibition at 0.1 µM was 0 to 25%.
Turning to `CC(C)(C)Cn1ccc2c(NC(=O)c3ccc(C(C)(C)C)cc3)cccc2c1=O` [Compound 1416], the inhibition lay in the range of 0 to 25%.
`Cc1ccc(C(=O)Nc2cccc3c(=O)n(CC4CCOCC4)ccc23)c(C)c1` [Compound 1087]: the inhibition at 0.3 µM ('+' class symbols) was in the range of 0 to 25%.
On to `COc1ccc(CCC(=O)Nc2cccc3c(=O)n(CC4CCOCC4)ccc23)cc1` [Compound 1095], for which the inhibition at 0.3 µM ('+' class symbols) was 0 to 25%.
For `CN(C)CCn1ccc2c(NC(=O)c3ccc(Cl)cc3Cl)cccc2c1=O` [Compound 1138], where the note is “'+' class symbols”, the inhibition at 0.3 µM was 0 to 25%.
Turning to `Cc1cc(Cl)ccc1C(=O)Nc1cccc2c(=O)n(Cc3cccnc3)ccc12` [Compound 1452], the inhibition lay within 0 to 25%.
